Values after ≈ are worked out from the molar mass of the structure shown.
Columns and labels:
Type in all cases: cell-based
[1] = test system: Streptococcus pyogenes 1079; assay: MIC, microtiter broth dilution (NCCLS M100-S14), S. pyogenes 1079 (ermB); settings: Streptococcus pyogenes 1079
Outline: (§1)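 NCCLS M100-S14 rules govern how the microdilution MICs are interpreted. Each compound starts as a 40 mg/ml solution in DMSO before dilution.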

[2] = test system: Streptococcus pneumoniae 1095; settings: Streptococcus pneumoniae 1095; microtiter broth dilution
Outline: as §1

[3] = test system: Streptococcus pneumoniae 1175; settings: Streptococcus pneumoniae 1175; microtiter broth dilution
Outline: as §1

[4] = test system: Streptococcus pneumoniae 1016; assay: MIC, microtiter broth dilution (NCCLS M100-S14), S. pneumoniae 1016 (susceptible); settings: Streptococcus pneumoniae 1016
Outline: as §1

[5] = test system: Haemophilus influenzae 1218; assay: MIC, microtiter broth dilution (NCCLS M100-S14), H. influenzae 1218 (susceptible); settings: Haemophilus influenzae 1218
Outline: as §1

| SMILES | MIC S. pyogenes 1079 [1] | MIC S. pneumo. 1095 [2] | MIC S. pneumo. 1175 [3] | MIC S. pneumo. 1016 [4] | MIC H. influenzae 1218 [5] |
| --- | --- | --- | --- | --- | --- |
| CCC1OC(=O)C(C)C(=O)C(C)C(OC2OC(C)CC(N(C)C)C2O)C(C)(OC)CC(C)C(=O)C(C)C2N(C3CN(C(=O)c4ccnc(-n5cnnn5)c4)C3)C(=O)OC12C (stereo not shown) [Example 2.19, 2-(1H-tetrazol-1-yl)pyridine-4-carboxyl] | >64.00 µg/mL | >64.00 µg/mL | 0.5 µg/mL (≈ 0.595 µM) | <0.06 µg/mL | 32 µg/mL (≈ 38.1 µM) |
| CCC1OC(=O)C(C)C(=O)C(C)C(OC2OC(C)CC(N(C)C)C2O)C(C)(OC)CC(C)C(=O)C(C)C2N(C3CN(C(=O)c4ccc(-n5cccn5)nc4)C3)C(=O)OC12C (stereo not shown) [Example 2.20] | >64.00 µg/mL | 1 µg/mL (≈ 1.19 µM) | 0.12 µg/mL (≈ 0.143 µM) | <0.06 µg/mL | 16 µg/mL (≈ 19.1 µM) |
| CCC1OC(=O)C(C)C(=O)C(C)C(OC2OC(C)CC(N(C)C)C2O)C(C)(OC)CC(C)C(=O)C(C)C2N(C3CN(S(=O)(=O)c4cccnc4)C3)C(=O)OC12C (stereo not shown) [Example 3.01, 3-descladinosyl-11,12-dideoxy-6-O-methyl-3-oxo-12,11-(oxycarbonyl-(1-(pyridine-3-sulfonyl)-azetidin-3-yl)-imino)-erythromycin A] | 4 µg/mL (≈ 4.94 µM) | <0.06 µg/mL | <0.06 µg/mL | <0.06 µg/mL | 0.25 µg/mL (≈ 0.309 µM) |
| CCC1OC(=O)C(C)C(=O)C(C)C(OC2OC(C)CC(N(C)C)C2O)C(C)(OC)CC(C)C(=O)C(C)C2N(C3CN(S(=O)(=O)c4cccc5ccccc45)C3)C(=O)OC12C (stereo not shown) [Example 3.02, 3-descladinosyl-11,12-dideoxy-6-O-methyl-3-oxo-12,11-(oxycarbonyl-(1-(naphthalene-1-sulfonyl)-azetidin-3-yl)-imino)-erythromycin A] | 0.5 µg/mL (≈ 0.583 µM) | <0.06 µg/mL | <0.06 µg/mL | <0.06 µg/mL | 0.12 µg/mL (≈ 0.14 µM) |
| CCC1OC(=O)C(C)C(=O)C(C)C(OC2OC(C)CC(N(C)C)C2O)C(C)(OC)CC(C)C(=O)C(C)C2N(C3CN(S(=O)(=O)c4cccc5cccnc45)C3)C(=O)OC12C (stereo not shown) [Example 3.03, 3-descladinosyl-11,12-dideoxy-O-methyl-3-oxo-12,11-(oxycarbonyl-(1-(quinoline-8-sulfonyl)-azetidin-3-yl)-imino)-erythromycin A] | 1 µg/mL (≈ 1.16 µM) | <0.06 µg/mL | <0.06 µg/mL | <0.06 µg/mL | 0.12 µg/mL (≈ 0.14 µM) |
| CCC1OC(=O)C(C)C(=O)C(C)C(OC2OC(C)CC(N(C)C)C2O)C(C)(OC)CC(C)C(=O)C(C)C2N(C3CN(S(=O)(=O)c4cccc5cnccc45)C3)C(=O)OC12C (stereo not shown) [Example 3.04, 3-descladinosyl-11,12-dideoxy-6-O-methyl-3-oxo-12,11-(oxycarbonyl-(1-(isoquinoline-5-sulfonyl)-azetidin-3-yl)-imino)-erythromycin A] | 0.12 µg/mL (≈ 0.14 µM) | <0.06 µg/mL | <0.06 µg/mL | <0.06 µg/mL | 0.25 µg/mL (≈ 0.291 µM) |
| CCC1OC(=O)C(C)C(=O)C(C)C(OC2OC(C)CC(N(C)C)C2O)C(C)(OC)CC(C)C(=O)C(C)C2N(C3CN(S(=O)(=O)c4cccc5nonc45)C3)C(=O)OC12C (stereo not shown) [Example 3.05] | 16 µg/mL (≈ 18.8 µM) | 2 µg/mL (≈ 2.35 µM) | <0.06 µg/mL | <0.06 µg/mL | 0.25 µg/mL (≈ 0.294 µM) |
| CCC1OC(=O)C(C)C(=O)C(C)C(OC2OC(C)CC(N(C)C)C2O)C(C)(OC)CC(C)C(=O)C(C)C2N(C3CN(S(=O)(=O)c4cccc5nsnc45)C3)C(=O)OC12C (stereo not shown) [Example 3.06, 3-descladinosyl-11,12-dideoxy-6-O-methyl-3-oxo-12,11-(oxycarbonyl-(1-(benzo[1,2,5]thiadiazole-4-sulfonyl)-azetidin-3-yl)-imino)erythromycin A] | 1 µg/mL (≈ 1.15 µM) | <0.06 µg/mL | <0.06 µg/mL | <0.06 µg/mL | 0.12 µg/mL (≈ 0.139 µM) |
| CCC1OC(=O)C(C)C(=O)C(C)C(OC2OC(C)CC(N(C)C)C2O)C(C)(OC)CC(C)C(=O)C(C)C2N(C3CN(S(=O)(=O)c4ccccc4F)C3)C(=O)OC12C (stereo not shown) [Example 3.07, 2-fluorobenzenesulfonyl] | 16 µg/mL (≈ 19.4 µM) | <0.06 µg/mL | <0.06 µg/mL | <0.06 µg/mL | 0.5 µg/mL (≈ 0.605 µM) |
| CCC1OC(=O)C(C)C(=O)C(C)C(OC2OC(C)CC(N(C)C)C2O)C(C)(OC)CC(C)C(=O)C(C)C2N(C3CN(S(=O)(=O)c4cccc(F)c4)C3)C(=O)OC12C (stereo not shown) [Example 3.08, 3-fluorobenzenesulfonyl] | 16 µg/mL (≈ 19.4 µM) | <0.06 µg/mL | <0.06 µg/mL | <0.06 µg/mL | 0.5 µg/mL (≈ 0.605 µM) |
| CCC1OC(=O)C(C)C(=O)C(C)C(OC2OC(C)CC(N(C)C)C2O)C(C)(OC)CC(C)C(=O)C(C)C2N(C3CN(S(=O)(=O)c4ccc(F)cc4)C3)C(=O)OC12C (stereo not shown) [Example 3.09, 4-fluorobenzenesulfonyl] | 16 µg/mL (≈ 19.4 µM) | <0.06 µg/mL | 0.25 µg/mL (≈ 0.303 µM) | <0.06 µg/mL | 0.25 µg/mL (≈ 0.303 µM) |

— patent US7462600B2, “Macrolides” (Pfizer Inc, priority 2004, dated 2008)
